Data as given in patent publication US12655116B2, “Substituted isophthalic acid diamides” (Bayer Aktiengesellschaft, priority 2020, dated 2026).

Experiments:
ABUTH [1] = assay: Pre-emergence herbicidal action against ABUTH; type: in vivo, Abutilon theophrasti; details: for Pre-emergence action against ABUTH (herbicidal activity): 80 g/ha, scored visually after 3 weeks vs untreated controls (100% = plants have died, 0% = like control plants); for Pre-emergence action against ABUTH (herbicidal activity in percent): dosage 20 g/ha, scored visually after 3 weeks vs untreated controls, 100% = plants have died, 0% = like control plants
Summary of the method: (§1)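 Visual rating at 3 weeks vs untreated pots; 0–100% scale, 100% = plants died. Treatment: aqueous WP/EC spray onto covering soil, 600–800 l/ha, 0.2% wetter, seeds in sandy loam.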

ALOMY [2] = assay: Pre-emergence herbicidal action against ALOMY; type: in vivo, Alopecurus myosuroides; details: 80 g/ha, pre-emergence, scored visually after 3 weeks vs untreated controls (100% = plants have died, 0% = like control plants)
Summary of the method: as §1

AMARE [3] = assay: Pre-emergence herbicidal action against AMARE; type: in vivo, Amaranthus retroflexus
Summary of the method: as §1

AVEFA [4] = assay: Pre-emergence herbicidal action against AVEFA; type: in vivo, Avena fatua; details: 80 g/ha, pre-emergence
Summary of the method: as §1

ECHCG [5] = assay: Pre-emergence herbicidal action against ECHCG; type: in vivo, Echinochloa crus-galli; details: 80 g/ha
Summary of the method: as §1

LOLRI = assay: Pre-emergence herbicidal action against LOLRI; type: in vivo, Lolium rigidum; details: 80 g/ha
Summary of the method: as §1

MATIN [6] = assay: Pre-emergence herbicidal action against MATIN; type: in vivo, Matricaria inodora
Summary of the method: as §1

PHBPU [7] = assay: Pre-emergence herbicidal action against PHBPU; type: in vivo, Pharbitis purpurea; details: dosage 80 g/ha
Summary of the method: as §1

POLCO = assay: Pre-emergence herbicidal action against POLCO; type: in vivo, Polygonum convolvulus; details: dosage 80 g/ha
Summary of the method: as §1

SETVI [8] = assay: Pre-emergence herbicidal action against SETVI; type: in vivo, Setaria viridis
Summary of the method: as §1

VIOTR [9] = assay: Pre-emergence herbicidal action against VIOTR; type: in vivo, Viola tricolor
Summary of the method: as §1

DIGSA [10] = assay: Pre-emergence herbicidal action against DIGSA; type: in vivo, Digitaria sanguinalis
Summary of the method: as §1

ALOMY [11] = assay: Post-emergence herbicidal action against ALOMY; type: in vivo, Alopecurus myosuroides; details: visual assessment about 3 weeks after treatment vs untreated controls
Summary of the method: (§2)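 Greenhouse pot plants in sandy loam were sprayed at the one-leaf stage, 2 to 3 weeks after sowing, with WP or EC formulations as aqueous suspension or emulsion (600 to 800 l/ha water, 0.2% wetting agent). About 3 weeks later, damage was scored visually against untreated controls as % action (100% = dead, 0% = like control).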

AVEFA [12] = assay: Post-emergence herbicidal action against AVEFA; type: in vivo, Avena fatua; details: 20 g/ha, visual assessment about 3 weeks after treatment, 100% = plants have died, 0% = like control plants
Summary of the method: as §2

ECHCG [13] = assay: Post-emergence herbicidal action against ECHCG; type: in vivo, Echinochloa crus-galli
Summary of the method: as §2

MATIN [14] = assay: Post-emergence herbicidal action against MATIN; type: in vivo, Matricaria inodora
Summary of the method: as §2

PHBPU [15] = assay: Post-emergence herbicidal action against PHBPU; type: in vivo, Pharbitis purpurea
Summary of the method: as §2

SETVI [16] = assay: Post-emergence herbicidal action against SETVI; type: in vivo, Setaria viridis
Summary of the method: as §2

VIOTR [17] = assay: Post-emergence herbicidal action against VIOTR; type: in vivo, Viola tricolor
Summary of the method: as §2

ABUTH [18] = assay: Post-emergence herbicidal action against ABUTH; type: in vivo, Abutilon theophrasti; details: visual assessment about 3 weeks after treatment vs untreated controls
Summary of the method: as §2

AMARE [19] = assay: Post-emergence herbicidal action against AMARE; type: in vivo, Amaranthus retroflexus; details: 20 g/ha, visual assessment about 3 weeks after treatment, 100% = plants have died, 0% = like control plants
Summary of the method: as §2

DIGSA [20] = assay: Post-emergence herbicidal action against DIGSA; type: in vivo, Digitaria sanguinalis
Summary of the method: as §2

[21] = 20 g/ha, scored visually after 3 weeks vs untreated controls, 100% = plants have died, 0% = like control plants
[22] = 80 g/ha, scored visually after 3 weeks vs untreated controls (100% = plants have died, 0% = like control plants)

| SMILES | Pre-emergence action against ABUTH (herbicidal activity) (ABUTH [1]) | Pre-emergence action against ABUTH (herbicidal activity in percent) (ABUTH [1]) | Pre-emergence action against ALOMY (herbicidal activity) (ALOMY [2]) | Pre-emergence action against AMARE in % (AMARE [3]; [21]) | Pre-emergence action against AMARE in % (AMARE [3]; [22]) | Pre-emergence action against AVEFA in % (AVEFA [4]) | Pre-emergence action against ECHCG in % (ECHCG [5]) | Pre-emergence action against LOLRI in % (LOLRI) | Pre-emergence action against MATIN in % (MATIN [6]; dosage 20 g/ha) | Pre-emergence action against MATIN in % (MATIN [6]; dosage 80 g/ha) | Pre-emergence action against POLCO in % (POLCO) | Pre-emergence action against SETVI in % (SETVI [8]; dosage 20 g/ha) | Pre-emergence action against SETVI in % (SETVI [8]; dosage 80 g/ha) | Pre-emergence action against VIOTR in % (VIOTR [9]; dosage 20 g/ha) | Pre-emergence action against VIOTR in % (VIOTR [9]; dosage 80 g/ha) | Pre-emergence action against DIGSA in % (DIGSA [10]; dosage 20 g/ha) | Pre-emergence action against DIGSA in % (DIGSA [10]; dosage 80 g/ha) | Post-emergence action against ALOMY in % (ALOMY [11]; dosage 5 g/ha) | Post-emergence action against ALOMY in % (ALOMY [11]; dosage 20 g/ha) | Post-emergence action at 20 g/ha against AVEFA in % (AVEFA [12]) | also measured |
| --- | --- | --- | --- | --- | --- | --- | --- | --- | --- | --- | --- | --- | --- | --- | --- | --- | --- | --- | --- | --- | --- |
| CCn1nnnc1NC(=O)c1ccc(Br)c(C(=O)NCC(F)F)c1Cl [Example 2-182] | 100% | 100% | 80% | 100% | 100% | 90% | 100% | 80% | 90% | 100% | 90% | 90% | 100% | 100% | 100% | 100% | 100% | 80% | 100% | 80% | Pre-emergence action against PHBPU in % (PHBPU [7]): 90%; Post-emergence action against ECHCG in % (ECHCG [13]; dosage 5 g/ha): 90%; Post-emergence action against ECHCG in % (ECHCG [13]; dosage 20 g/ha): 90%; Post-emergence action against MATIN in % (MATIN [14]; dosage 5 g/ha): 90%; Post-emergence action against MATIN in % (MATIN [14]; dosage 20 g/ha): 90%; Post-emergence action against PHBPU in % (PHBPU [15]; dosage 5 g/ha): 80%; Post-emergence action against PHBPU in % (PHBPU [15]; dosage 20 g/ha): 90%; Post-emergence action against SETVI in % (SETVI [16]; dosage 5 g/ha): 90%; Post-emergence action against SETVI in % (SETVI [16]; dosage 20 g/ha): 100%; Post-emergence action against VIOTR in % (VIOTR [17]; 20 g/ha): 100% |
| CCn1nnnc1NC(=O)c1ccc(I)c(C(=O)NC)c1Cl [Example 2-195] | 100% | 100% | 100% | 100% | 100% | 80% | 80% | 90% | 100% | 100% | 80% | 80% | 100% | 100% | 100% | 90% | 100% | 80% | 100% | 80% | Post-emergence action against ABUTH in % (ABUTH [18]; dosage 5 g/ha): 100%; Post-emergence action against ABUTH in % (ABUTH [18]; dosage 20 g/ha): 100%; Post-emergence action at 20 g/ha against AMARE in % (AMARE [19]): 100%; Post-emergence action against MATIN in % (MATIN [14]; dosage 5 g/ha): 80%; Post-emergence action against MATIN in % (MATIN [14]; dosage 20 g/ha): 90%; Post-emergence action against SETVI in % (SETVI [16]; dosage 5 g/ha): 90%; Post-emergence action against SETVI in % (SETVI [16]; dosage 20 g/ha): 100%; Post-emergence action against VIOTR in % (VIOTR [17]; 5 g/ha): 100%; Post-emergence action against VIOTR in % (VIOTR [17]; 20 g/ha): 100%; Post-emergence action against DIGSA in % (DIGSA [20]; 5 g/ha): 80%; Post-emergence action against DIGSA (DIGSA [20]; 20 g/ha): 90% |
